According to patent US20250177448A1, “NEW USE OF PEG-PHOSPHOLIPID MOLECULES” (ICOAT MEDICAL AB, priority 2022, published 2025):
Entries after “also recorded” stand apart in the source; their conditions may differ.

Experiments:
[1] = test system: CD4; assay: Antibody binding to surface antigen on PEG-phospholipid coated CCRF-CEM, flow cytometry; assay type: cell-based, human; conditions: 2 mg/ml in PBS, 30 minutes room temperature; antigen 15 nm
Description: CCRF-CEM were collected from cell culture medium (1×10^6 cells) and washed with PBS by centrifugation (250×g, 3 min, RT). A cell pellet of CCRF-CEM (1×10^6 cells) was incubated with PEG-phospholipid (50 μl, 2 mg/ml in PBS), 5 kDa unconjugated PEG (50 μl, 2 mg/ml in PBS) or PBS (50 μl, as control) for 30 min at RT with gentle mixing. After washing with PBS by centrifugation (200×g, 4° C., 3 min) twice, FITC-labeled three antibodies, FITC-anti-human CD52 from BioLegend (400 μg/ml, 40 μl), FITC-anti-human CD4 from BioLegend (200 μg/ml, 40 μl), or Alexa488-labelled anti-human CD8 from GeneTex (200 μg/ml, 40 μl, Alexa488 was labelled by the labelling kit) or PBS (40 μl) was mixed with the treated CCRF-CEM for 15 min at RT. As a control, CCRF-CEM was treated with 2 mg/ml PEG (5 kDa, in PBS) solution and additionally incubated with FITC- or Alexa488-labeled antibodies. After washing with PBS by centrifugation (200×g, 4° C., 3 min), CCRF-CEM were re-suspended with PBS (1 ml) for flow cytometry measurements. Samples were analyzed on a flow cytometer (BD LSR II, BD Biosciences). Post analysis processing was carried out in FlowJo (BD).
CCRF-CEM cells were incubated with PEG-phospholipid (2 mg/ml in PBS), free PEG (5 kDa, equivalent molecular weight used in the synthesis of PEG-phospholipid) or PBS (vehicle control) for 30 minutes at room temperature. After removing excess PEG-phospholipid, FITC-labelled antibodies directed towards surface antigens of different sizes, CD52, CD4, and CD8, were added. Samples were analyzed on a flow cytometer. […] The size of CD8 is estimated to be around 5-10 nm based on the crystal structure of the non-membranous part. Lastly, CD4-antibodies were not blocked by PEG-phospholipid, as expected, given that the size of the antigen (15 nm) is larger than the size of PEG-phospholipid (estimated to be around 6 nm) (FIG. 3A).

[2] = test system: RBCs; assay: Complement mediated lysis of RBCs coated with PEG-phospholipid; assay type: cell-based, human; conditions: ABO missmatched donors, vs non-treated controls, 37° C. 20 min
Description: (§1) In order to investigate if the PEG-phospholipid was able to protect against complement mediated lysis, RBCs were used from 13 different donors who were typed for Rh complex and ABO antigens. RBCs were isolated and preincubated with PEG-phospholipid at varying concentrations, free PEG or PBS as described above. Cells were then washed (and the supernatant stored for analysis) with PBS (800 g×5 min, RT) and incubated with human serum (where the complement system is active) for 20 minutes at 37° C. They were then spun down again (800 g×5 min) and the supernatant was collected for analysis of hemolysis. The RBCs were analyzed for complement fixation (cells were incubated for 10 min with a
(§2) FITC-labelled anti-C3c antibody). RBCs were resuspended with PBS (1 mL) for flow cytometry measurements. […] Post analysis processing was carried out in FlowJo (BD). The supernatant was analyzed on a variable wavelength detection plate reader, Synergy HTX, for the absorbance at 540 nm. RBCs, which were lysed via osmotic stress, were run in parallel as positive controls. The background absorbance at 540 nm from PBS containing no cells was subtracted and the difference in absorbance between cells coated with PEG-phospholipid or PBS was then calculated.

[3] = test system: red blood cells; assay: Cell lysis of red blood cells caused by PEG-phospholipid coating; assay type: cell-based; conditions: at the levels able to efficiently mask surface antigens on red blood cells
Description: as §1, §2

[4] = test system: collectin-11 (CL-11); assay: Binding of lectin pathway recognition molecule to coated HUVEC after plasma exposure, flow cytometry; assay type: cell-based; conditions: 0.5 mg/ml, after human plasma exposure
Description: (§3) Post analysis processing was carried out in FlowJo.

[5] = test system: mannan binding lectin (MBL); assay: Binding of lectin pathway recognition molecule to coated HUVEC after serum exposure, flow cytometry; assay type: cell-based, human; conditions: 0.5 mg/ml
Description: as §3

[6] = test system: HLA Class I (antibody W6/32); assay: Anti-HLA antibody binding to PEG-phospholipid treated PBMCs, flow cytometry; assay type: cell-based; conditions: freshly isolated human PBMC
Text: (§4) To test the efficacy of the PEG-phospholipid (SUNBRIGHT®) PP-050CN, N-(methylpolyoxyethylene oxycarbonyl)-1,2-dipalmitoyl-sn-glycero-3-phosphoethanolamine, sodium salt, NOF Corp., Japan) to block binding of anti-HLA antibodies to HLA antigens, similar to in a potential clinical setting, we used human PBMCs from healthy donors to block the HLA antigens.
(§5) • FITC Mouse Anti-Human HLA-ABC; Monoclonal (G46-2.6) (BD Pharmingen) cat no. 555552 • Biotin Mouse Anti-human HLA Class I antibody [W6/32] (Abcam) cat no. ab110665 • PE-streptavidin (BD Pharmingen) cat no. 554061
(§6) PBMC was isolated from whole blood by using Cytiva™ Ficoll-Paque™ PLUS Media (Cytiva 17-1440-02) following standard protocol. In brief, whole blood was diluted in equal volume of PBS and carefully layered on top of Ficoll paque and centrifuged at 800×g for 25 mins. A cloudy layer was separated from the top of Ficoll and washed twice again with PBS.
(§7) The cells were stained with FITC mouse anti-human HLA-ABC monoclonal antibodies and biotin mouse anti-human HLA class | antibody [W6/32] (Abcam) followed by PE-streptavidin. The stained cells were analyzed by Beckman coulter cytoflex S (Biovis, facility, IGP, Rudbeck laboratory).

[7] = test system: HLA-ABC (antibody G46-2.6); assay: as above; assay type: cell-based; conditions: freshly isolated human PBMC
Text: as §4, §5, §6, §7

[8] = test system: Concanavalin A; conditions: HUVEC, 0.5 mg/ml, without plasma exposure
Description: HUVEC cells were cultured with endothelial cell culture medium with supplements (Promocell) in cell culture flasks (Thermofisher Scientific) and Petri dishes (NUNC). The cells were detached using trypsin EDTA buffer for flowcytometry analysis (BD accuri C6 Serial no. 5173). The cells were rinsed with PBS (10 mL) by centrifugation (120×g, 4° C., 3 min) once and fresh medium was added to the detached cells.
In addition, HUVEC cells were incubated with PEG-phospholipid (0.5 mg/ml), with 10 mM free PEG (5 kDa), or PBS (control) at RT for 45 min followed by washing with PBS, and incubation in human serum with EDTA-plasma as control, both diluted 1:50 in PBS, for 30 min at 37° C. After washing, lectin pathway recognition molecules collectin-11 (CL-11), and mannan binding lectin (MBL), were detected using the FITC-labelled and isotype control antibodies as given in Table 1. […] In addition, FITC-labelled concavalin A (a lectin of broad specificity) was incubated with coated and native HUVECs (without prior exposure to plasma) at a concentration of 50 g/ml.
After incubation with detecting antibodies, the cells were washed with PBS. All samples were analyzed on an Accuri C6 flow cytometer, unstained cells were used to gate the endothelial cell population. 10,000 events were recorded and additional controls in the form of isotype control and unstained control were ran in parallel. […]

“N-(methylpolyoxyethylene oxycarbonyl)-1,2-dipalmitoyl-sn-glycero-3-phosphoethanolamine [PEG-phospholipid]” was tested, and the “binding of CD4-antibodies” value [1] was “not blocked; also recorded: no significant masking”, the “complement-mediated RBC lysis” value [2] was “reduced complement-mediated RBC lysis in a dose dependent manner” and the “cell lysis caused by the PEG-phospholipid molecules” value [3] was “did not cause any cell lysis”. The “binding of CL-11” value [4] was “substantially reduced”, the “decrease of MBL binding from human serum” value [5] was 25-30% and the “binding of anti-HLA class I antibodies W6/32 to PBMCs” value [6] was “robust inhibition”. For the same substance, the “binding of anti-HLA class I antibodies W6/32 to PBMCs” value ([6]; listed as PEG-phospholipids) was “inhibited”, the “binding of anti-HLA-ABC G46-2.6 to PBMCs” value [7] was “robust inhibition” and the “binding of anti-HLA-ABC G46-2.6 to PBMCs” value ([7]; listed as PEG-phospholipids) was “inhibited”. The “binding of Concanavalin A” value [8] was “substantially reduced”.
